# Source: patent US20230301896A1, “COMPOSITION FOR PENETRATING SUGAR BASED DELIVERY SYSTEM” (Evonik Operations GmbH, priority 2015, published 2023)
# What was measured:
# [1] = HPLC determination of retinol (stabilization of active ingredient); assay type: physicochemical; conditions: UV 323 nm
# Experimental: Active ingredients can be detected by any known analytical test method which can be e.g. HPLC, GG, ESR depending on the composition. This effect depends on the active lipophilic ingredient encapsulated.
# Test Method used: HPLC Chromatography
# Instrumentation: Liquid Chromatograph Agilent 1100 with autosampler, UV-detector
# Column: Reprosil C-18-AQ; 5μ, 200*4 mm (Fa. Dr. Maisch) with precolumn: • Column Temp.: 20° C. • Mobile Phase: Acetonitrile/THF/Water (54/38/8 v/v/v) • Flow Rate: 1.0 ml/min • Gradient Program: Isocratic • Detection: UV-Detector; 323 nm • Injection Volume: 5 μl; Autosampler • Retention Time: 1.6 min
# Reagents: • Acetonitrile (Roth, gradient grade) • THF (Roth, gradient grade) • 2-Propanol (Roth, gradient grade) • Water, twice-distilled • Retinol 50C (BASF, Cosmetic Quality, approx, 50%)—standard • (If not stated otherwise the reagents are used as purchased without any further purification)
# [2] = tested on: Inner forearm; assay: Reduction of irritation potential, 5 D Intravitaltomography (taum); assay type: in vivo, human; conditions: 0.3% of retinol occlusively applied onto inner forearm; taum at start point and 48 h after application
# Source text: Reduction of Irritation can be detected by any known analytical test method which can be e.g. 5D IVT, ELISA, Patch Test. HET Cam Test using skin, skin models, cells. This effect depends on the active lipophilic ingredient encapsulated.
# Data which measured in accordance with the method as described in “From Morphology To Biochemical State—Intravital Multiphoton Fluorescence Lifetime Imaging Of Inflamed Human Skin”, by Volker Huck et al. published in www.nature.com/scientificreports, 23 Mar. 2016; the disclosure of which is hereby incorporated by reference. Referring now to FIGS. 3 and 4, FIGS. 3 and 4 illustrate the Taum measurement. The delivery system of the invention can achieve Tau values of about 100 ps to about 3000 ps, about 300 ps to about 2500 ps and in some cases about 500 ps to about 1500 ps in the Stratum granulosum and Stratum spinosum.
compound,measurement,setting,value
"CC1=C(/C=C/C(C)=C/C=C/C(C)=C/CO)C(C)(C)CCC1 [retinol, Retinol]",stabilization of Retinol (HPLC),[1],degrades
same,irritation potential,[2],significantly higher
